Laboratory results: patent US20100016353A1, “BENZOIMIDAZOLE DERIVATIVES USEFUL AS ANTIPROLIFERATIVE AGENTS” (priority 2004, published 2010)

Experiments:
[1] = Metabolite identification, human cryopreserved hepatocyte incubation of parent compound; type: in vitro ADME; details: parent incubated up to four hours
Method: (§1) Hepatocytes: Rat, dog and human cryopreserved hepatocyte incubations were performed using 1-{2-[5-(3-Methyl-oxetan-3-ylmethoxy)-benzoimidazol-1-yl]-quinolin-8-yl}-piperidin-4-ylamine. Rat, dog and human cryopreserved hepatocytes were obtained from In Vitro Technologies, Baltimore, Md. and suspended in Williams E Media, available from Fisher-Scientific, to a final cell density of 1×10^6 viable cells/mL. 1-{2-[5-(3-Methyl-oxetan-3-ylmethoxy)-benzoimidazol-1-yl]-quinolin-8-yl}-piperidin-4-ylamine was incubated in these hepatocyte suspensions at a final concentration of […] at 37° C. in a shaking water bath for up to four hours. A 5 mL aliquot was removed from each incubation mixture immediately and at four hours after addition of substrate. The samples were prepared for analysis by mixing with two volumes of acetonitrile followed by centrifugation to pellet precipitated proteins. The […] were evaporated to dryness before analysis. Dried samples were reconstituted in 300 μL 50/50 10 mM ammonium formate, pH 3.0/acetonitrile, and 10 μL aliquots were analyzed by LC/MS/MS. 1-{2-[5-(2-Methoxy-ethoxy)-benzoimidazol-1-yl]-quinolin-8-yl}-piperidin-4-ylamine was incubated in dog hepatocytes under the same conditions as a positive control.
(§2) Separation of 1-{2-[5-(3-Methyl-oxetan-3-ylmethoxy)-benzoimidazol-1-yl]-quinolin-8-yl}-piperidin-4-ylamine and its metabolites in all samples was accomplished on a Zorbax SB-C18 reverse phase column (5 μm, 4.6×150 mm) at a flow rate of 1.0 mL/min. The mobile phase consisted of 10 mM ammonium formate, pH 3.0, (A) and acetonitrile (B). After injection of the sample, the column was washed with 10% B for 5 minutes followed by resolution of the metabolites with a linear gradient from 10% to 50% B over a 20-minute period. A 5-minute wash with 90% B followed by a 7-minute re-equilibration to 10% B was used between subsequent injections.
(§3) All Samples were analyzed by a Finnigan TSQ7000 mass spectrometer operated in positive ion mode with in-line ultraviolet detection (Shimadzu, λ=254 nm). Ionspray voltage and capillary temperature were maintained at 4.5 kV and 350 degrees Celsius, respectively. Product ion spectra were obtained with CID of 35 V; further fragmentation was obtained by conducting product ion scans with source CID of 10 V. Neutral loss scans of 176 (for glucuronide detection) were conducted with CID of 30 V.
(§4) The metabolites were initially identified by molecular ion (Q1) scans of the sample mixture. Potential metabolites were characterized by fragmentation of the metabolite molecular ions and comparison of the resulting fragmentation patterns with the 1-{2-[5-(3-Methyl-oxetan-3-ylmethoxy)-benzoimidazol-1-yl]-quinolin-8-yl}-piperidin-4-ylamine product mass spectrum.

[2] = Metabolite identification, dog liver cytosol incubation of parent compound; type: in vitro ADME; details: for Relative Abundance of metabolite, Dog Liver Cytosol: parent incubated one hour
Method: (§5) Cytosol: 1-{2-[5-(3-Methyl-oxetan-3-ylmethoxy)-benzoimidazol-1-yl]-quinolin-8-yl}-piperidin-4-ylamine (10 μM) was incubated and prepared for analysis. Cryopreserved human liver cytosol from Tissue Transformation Technologies Inc., Edison, N.J., (lot: HHC-0255, ˜20 mg/mL) and dog liver cytosol (˜35 mg/mL) were thawed on ice immediately before the incubation. The cytosol was diluted 10-fold in 100 mM potassium phosphate buffer (pH 7.4) before addition of 1-{2-[5-(3-Methyl-oxetan-3-ylmethoxy)-benzoimidazol-1-yl]-quinolin-8-yl}-piperidin-4-ylamine (final concentration […]) for a final incubation volume of 2 mL. Samples were incubated for one hour in a 37° C. water bath, then quenched with two volumes of acetonitrile. Samples were vortexed and subsequently centrifuged at 3000 rpm. Samples were prepared for analysis by centrifugation at 3000 rpm to pellet the precipitated proteins and by evaporating the supernatant to dryness. The samples were reconstituted in 300 μL 50/50 10 mM ammonium formate, pH 3.0/acetonitrile. A 10 μL reconstituted aliquot was analyzed by LC/MS/MS. 1-{2-[5-(2-Methoxy-ethoxy)-benzoimidazol-1-yl]-quinolin-8-yl}-piperidin-4-ylamine was incubated in human and dog liver cytosol under the same conditions as a positive control.
as §2, §3, §4

[3] = Metabolite identification, human liver cytosol incubation of parent compound; type: in vitro ADME; details: for Relative Abundance of metabolite, Human Liver Cytosol: parent incubated one hour; on Relative Abundance of metabolite, Human Liver Cytosol: key: −: metabolite not observed; +: minor metabolite; +++: major metabolite
Method: as §5, §2, §3, §4

[4] = Metabolite identification, dog cryopreserved hepatocyte incubation of parent compound; type: in vitro ADME; details: parent incubated up to four hours
Method: as §1, §2, §3, §4

[5] = Metabolite identification in dog bile after administration of parent compound; type: in vivo, beagle dogs; details: for Relative Abundance of metabolite, Dog Bile (IV): only 2-4 hr samples analyzed, cannot distinguish between M6 and M7; for Excretion in bile: dog, after 5.0 mg/kg oral administration of parent
[6] = Metabolite identification, rat cryopreserved hepatocyte incubation of parent compound; type: in vitro ADME; details: parent incubated up to four hours
Method: as §1, §2, §3, §4

[7] = Metabolite identification in dog plasma after intravenous administration of parent compound; type: in vivo, beagle dogs; details: for Relative Abundance of metabolite, Dog Plasma (IV): 2.0 mg/kg intravenous parent, 20 min, 40 min and 1 h samples
Method: Dog Plasma and Bile: Dog plasma was collected from beagle dogs following intravenous administration (2.0 mg/kg) of 1-{2-[5-(3-Methyl-oxetan-3-ylmethoxy)-benzoimidazol-1-yl]-quinolin-8-yl}-piperidin-4-ylamine. A 200 μL plasma sample from each dog was pooled for each timepoint. Three volumes of acetonitrile were added to the pooled plasma samples to precipitate proteins. Following centrifugation, the supernatant was recovered and dried at 37° C. under nitrogen and reconstituted in 150 μL 50/50 10 mM ammonium formate, pH 3.0/acetonitrile. A 20 μL aliquot was analyzed by LC/MS/MS.
as §2, §3, §4

[8] = molecular target: T1, microsomal epoxide hydrolase (Homo sapiens, UniProt P07099); experiment: Microsomal epoxide hydrolase inhibitor studies; type: in vitro ADME
T1 sequence (P07099 1-455): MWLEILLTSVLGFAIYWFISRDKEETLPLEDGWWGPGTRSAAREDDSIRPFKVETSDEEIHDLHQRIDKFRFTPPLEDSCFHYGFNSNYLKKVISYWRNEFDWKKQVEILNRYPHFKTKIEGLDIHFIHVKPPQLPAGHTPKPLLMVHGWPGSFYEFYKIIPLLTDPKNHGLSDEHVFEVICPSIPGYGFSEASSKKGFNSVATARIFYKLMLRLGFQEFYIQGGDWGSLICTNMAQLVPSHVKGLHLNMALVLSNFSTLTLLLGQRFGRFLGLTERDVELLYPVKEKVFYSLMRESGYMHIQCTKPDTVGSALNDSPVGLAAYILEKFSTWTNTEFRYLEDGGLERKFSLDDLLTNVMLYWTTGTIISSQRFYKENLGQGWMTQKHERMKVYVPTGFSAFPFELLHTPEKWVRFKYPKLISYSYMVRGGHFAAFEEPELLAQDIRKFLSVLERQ

[9] = Metabolite identification, dog liver microsome incubation of parent compound; type: in vitro ADME; details: for Relative Abundance of metabolite, DLM-NADPH ctrl: dog liver microsomes, control without NADPH; for Relative Abundance of metabolite, Dog Liver Microsomes: parent incubated 1 h with NADPH
Method: (§6) Microsomes: 1-{2-[5-(3-Methyl-oxetan-3-ylmethoxy)-benzoimidazol-1-yl]-quinolin-8-yl}-piperidin-4-ylamine (10 μM) was incubated in mouse, rat, dog, monkey and human liver microsomes and collected for analysis. 1-{2-[5-(3-Methyl-oxetan-3-ylmethoxy)-benzoimidazol-1-yl]-quinolin-8-yl}-piperidin-4-ylamine, (final concentration […]) was incubated in mouse (0.45 mg/mL protein), rat ([…] protein), dog ([…] protein), monkey (0.42 mg/mL protein) and human liver microsomes (1.56 mg/mL protein) containing MgCl2 (10 mM) and NADPH (1 mM) in potassium phosphate buffer (100 mM, pH 7.4) at 37° C. The total volume of each reaction mixture was 5 mL containing a total cytochrome P450 concentration of […]. Each mixture was preincubated for 10 minutes before addition of NADPH to initiate the reaction. The reaction was stopped one hour after addition of NADPH by adding two volumes of acetonitrile to the reaction mixture. […] Samples were prepared for analysis by centrifugation at 300 rpm to pellet the precipitated proteins and by evaporating the supernatant to dryness. The dried […] were reconstituted in 600 μL 50/50 10 mM ammonium formate, pH 3.0/acetonitrile, and 10 μL aliquots were analyzed by liquid chromatography and mass spectroscopy (LC/MS/MS). 1-{2-[5-(2-Methoxy-ethoxy)-benzoimidazol-1-yl]-quinolin-8-yl}-piperidin-4-ylamine was incubated in dog liver microsomes under the same conditions as a positive control.
as §2, §3, §4

[10] = Metabolite identification, rat liver microsome incubation of parent compound; type: in vitro ADME; details: for Relative Abundance of metabolite, Rat Liver Microsomes: parent incubated 1 h with NADPH; for Relative Abundance of metabolite, RLM-NADPH ctrl: rat liver microsomes, control without NADPH
Method: as §6, §2, §3, §4

[11] = Metabolite identification, human liver microsome incubation of parent compound; type: in vitro ADME; details: for Relative Abundance of metabolite, HLM-NADPH ctrl: human liver microsomes, control without NADPH; for Relative Abundance of metabolite, Human Liver Microsomes: parent incubated 1 h with NADPH, relative peak height on UV chromatogram
Method: as §6, §2, §3, §4

Row | Structure (SMILES) | Relative Abundance of metabolite, Human Hepatocytes [1] | Relative Abundance of metabolite, Dog Liver Cytosol [2] | Relative Abundance of metabolite, Human Liver Cytosol [3] | Relative Abundance of metabolite, Dog Hepatocytes [4] | Relative Abundance of metabolite, Dog Bile (IV) [5] | Relative Abundance of metabolite, Rat Hepatocytes [6] | Relative Abundance of metabolite, Dog Plasma (IV) [7] | Excretion in bile [5] | Relative Abundance of metabolite, DLM-NADPH ctrl [9] | Relative Abundance of metabolite, Dog Liver Microsomes [9] | Relative Abundance of metabolite, Rat Liver Microsomes [10] | Relative Abundance of metabolite, RLM-NADPH ctrl [10] | Relative Abundance of metabolite, HLM-NADPH ctrl [11] | Relative Abundance of metabolite, Human Liver Microsomes [11] | further results
1 | CC(CO)(COc1ccc2c(c1)ncn2-c1ccc2cccc(N3CCC(N)CC3)c2n1)COC1O[C@H](C(=O)O)[C@@H](O)[C@H](O)[C@H]1O (stereo in doubt) [Metabolite M5, 6-(3-{1-[8-(4-Amino-piperidin-1-yl)-quinolin-2-yl]-1H-benzoimidazol-5-yloxy}-2-hydroxymethyl-2-methyl-propoxy)-3,4,5-trihydroxy-tetrahydro-pyran-2-carboxylic acid] | − | − | − | + (minor metabolite) | − | − | − |  |  |  |  |  |  |  | 
2 | CC1(COc2ccc3c(c2)ncn3-c2ccc3cccc(N4CCC(N)CC4)c3n2)COC1 [1-{2-[5-(3-Methyl-oxetan-3-ylmethoxy)-benzoimidazol-1-yl]-quinolin-8-yl}-piperidin-4-ylamine, reference compound] |  |  |  |  |  |  |  | appears to be excreted in bile |  |  |  |  |  |  | Metabolites in human liver cytosolic incubations ([3]; parent incubated in human liver cytosol): No metabolites were observed; Substrate for microsomal epoxide hydrolase [8]: not a substrate
3 | CC(CO)(CO)COc1ccc2c(c1)ncn2-c1ccc2cccc(N3CCC(N)CC3)c2n1 [Metabolite M1, 2-{1-[8-(4-Amino-piperidin-1-yl)-quinolin-2-yl]-1H-benzoimidazol-5-yloxymethyl}-2-methyl-propane-1,3-diol] | +++ (major metabolite) | +++ (major metabolite) | − | +++ (major metabolite) | +++ (major metabolite) | +++ (major metabolite) | +++ (major metabolite) | excreted in bile | +++ (major metabolite) | +++ (major metabolite) | +++ (major metabolite) | + (minor metabolite) | + (minor metabolite) | +++ (major metabolite) | Formation of M1, cytochrome P450 mediation ([9]; dog): not mediated by cytochrome P450; Metabolite status in dog liver cytosolic incubations [2]: predominant metabolite; Formation of M1, cofactor dependence ([10]; rat): NADPH dependent; Metabolite status in dog plasma ([7]; twenty minutes to one hour after 2.0 mg/kg intravenous administration of parent): major metabolite; Formation of M1, cofactor dependence ([11]; human): NADPH dependent
4 | CC(CO)(COc1ccc2c(c1)ncn2-c1ccc2cccc(N3CCC(N)CC3)c2n1)C(=O)O (stereo not drawn) [Metabolite M2, 3-{1-[8-(4-Amino-piperidin-1-yl)-quinolin-2-yl]-1H-benzoimidazol-5-yloxy}-2-hydroxymethyl-2-methyl-propionic acid] | +++ (major metabolite) | − | − | + (minor metabolite) | + (minor metabolite) | +++ (major metabolite) | − | excreted in bile | − | + (minor metabolite) | − | − | − | +++ (major metabolite) | 
5 | NC1CCN(c2cccc3ccc(-n4cnc5cc(O)ccc54)nc23)CC1 [Metabolite M8, 1-[8-(4-Amino-piperidin-1-yl)-quinolin-2-yl]-1H-benzoimidazol-5-ol] | − | − | − | − | + (minor metabolite) | − | − |  | − | − | − | − | − | − | Observation in bile ([5]; dog bile 2-4 hr post-dose of parent): observed in bile
